Measurements as given in patent publication US11028066B2, “Inhibitors of lysine specific demethylase-1” (CELGENE QUANTICEL RESEARCH, INC., priority 2014, dated 2021).

Legend:
[1] = target: full-length human LSD1 (Homo sapiens (Human), UniProt O60341); experiment: In vitro enzyme inhibition assay LSD-1 (TR-FRET); type: biochemical; conditions: H3K4me1-biotin peptide
Description: This assay determines the ability of a test compound to inhibit LSD1 demethylase activity.
The enzymatic assay of LSD1 activity is based on Time Resolved-Fluorescence Resonance Energy Transfer (TR-FRET) detection.
Plates were read by EnVision Multilabel Reader in TR-FRET mode (excitation at 320 nm, emission at 615 nm and 665 nm) after 1 hour incubation at room temperature.
The ability of the compounds disclosed herein to inhibit LSD1 activity was quantified and the respective IC50 value was determined.

[2] = system: THP-1 (AML) cells; experiment: LSD1 CD11b cellular assay (flow cytometry); type: cell-based; conditions: Homo sapiens, THP-1, 96 h; CD11b expressing cells, 4 days incubation
Description: To analyze LSD1 inhibitor efficacy in cells, a CD11b flow cytometry assay was performed. LSD1 inhibition induces CD11b expression in THP-1 (AML) cells which can be measured by flow cytometry. […] LSD1 test compounds were serially diluted in DMSO. The dilutions were added to each well accordingly to a final concentration of 0.2% DMSO. The cells were incubated at 37 degrees Celsius in 5% CO2 for 4 days. 250 μL of each well was transferred to a well in a 96 well round bottom plate. The plate was centrifuged at 1200 rpm at 4 degrees Celsius in a Beckman Coulter Alegra 6KR centrifuge for 5 minutes. The media was removed leaving the cells at the bottom of the wells. The cells were washed in 100 μL cold HBSS (Hank's Balanced Salt Solution) plus 2% BSA (Bovine Serum Albumin) solution and centrifuged at 1200 rpm at 4 degrees Celsius for 5 minutes. The wash was removed. […] The cells were centrifuged and washed two times in 100 μL HBSS plus 2% BSA. After the final spin the cells were resuspended in 100 μL HBSS plus 2% BSA containing 1 ug/mL DAPI (4′,6-diamidino-2-phenylindole). The cells were then analyzed by flow cytometry in a BD FACSAria machine. Cells were analyzed for CD11b expression. The percent of CD11b expressing cells for each inhibitor concentration was used to determine an IC50 curve for each compound analyzed.

Row | SMILES | IC50 [1] | IC50 [2]
1 | COc1ccc(-c2c(-c3ccc(C#N)c(F)c3)nc(N3CCC(N)CC3)c(=O)n2C)cc1 [Example 52, 4-[6-(4-amino-piperidin-1-yl)-3-(4-methoxy-phenyl)-4-methyl-5-oxo-4,5-dihydro-pyrazin-2-yl]-2-fluoro-benzonitrile] | < 100 nM | < 100 nM
2 | Cn1c(-c2ccc(C3CC3)cc2)c(-c2ccc(C#N)nc2)nc(N2CCC(N)CC2)c1=O [Example 53, 5-[6-(4-amino-piperidin-1-yl)-3-(4-cyclopropyl-phenyl)-4-methyl-5-oxo-4,5-dihydro-pyrazin-2-yl]-pyridine-2-carbonitrile] | < 100 nM | < 100 nM
3 | Cn1c(-c2ccc(OCC3CC3)cc2)c(-c2ccc(C#N)c(F)c2)nc(NC[C@H]2CCNC2)c1=O [Example 61, 4-{3-(4-cyclopropylmethoxy-phenyl)-4-methyl-5-oxo-6-[((3S)-pyrrolidin-3-ylmethyl)-amino]-4,5-dihydro-pyrazin-2-yl}-2-fluoro-benzonitrile] | < 100 nM | < 100 nM
4 | Cc1ccc(-c2c(-c3ccc(C#N)cc3)nc(N3CCC(C)(N)CC3)c(=O)n2C)cc1 [Example 21, 4-[6-(4-amino-4-methylpiperidin-1-yl)-4-methyl-3-(4-methylphenyl)-5-oxo-4,5-dihydropyrazin-2-yl]benzonitrile] | < 100 nM | 100 to 1000 nM
5 | N#Cc1ccc(-c2cn(Cc3ccccc3)c(=O)c(N3CCC(N)CC3)n2)cc1 [Example 1, 4-[6-(4-aminopiperidin-1-yl)-4-benzyl-5-oxo-4,5-dihydropyrazin-2-yl]benzonitrile] | < 100 nM | 100 to 1000 nM
6 | Cc1ccc(-c2c(-c3ccc(C#N)nc3)nc(N3CCC(N)CC3)c(=O)n2C)cc1 [Example 19, 5-[6-(4-aminopiperidin-1-yl)-4-methyl-3-(4-methylphenyl)-5-oxo-4,5-dihydropyrazin-2-yl]pyridine-2-carbonitrile] | < 100 nM | < 100 nM
7 | N#Cc1ccc(-c2cn(Cc3cccc(F)c3)c(=O)c(N3CCC(N)CC3)n2)cc1 [Example 8, 4-[6-(4-aminopiperidin-1-yl)-4-[(3-fluorophenyl)methyl]-5-oxo-4,5-dihydropyrazin-2-yl]benzonitrile] | < 100 nM | 100 to 1000 nM

The next lines start with the values.

Row | IC50 [1] | IC50 [2] | SMILES
8 | < 100 nM | < 100 nM | Cn1c(-c2ccc(C3CC3)cc2)c(-c2ccc(C#N)nc2)cc(NC[C@H]2CCNC2)c1=O [Example 73, (S)-5-(2-(4-cyclopropylphenyl)-1-methyl-6-oxo-5-(pyrrolidin-3-ylmethylamino)-1,6-dihydropyridin-3-yl)picolinonitrile]
9 | < 100 nM | < 100 nM | CNC1CCN(c2cc(-c3ccc(C#N)cc3)c(-c3ccc(C)cc3)n(C)c2=O)CC1 [Example 80, 4-{1-methyl-5-[4-(methylamino)piperidyl]-2-(4-methylphenyl)-6-oxo-3-hydropyridyl}benzenecarbonitrile]
10 | < 100 nM | < 100 nM | COc1ccc(-c2c(-c3ccc(C#N)c(F)c3)nc(N3CCC(N)CC3)c(=O)n2CCC(N)=O)cc1 [Example 89, 3-[3-(4-aminopiperidyl)-5-(4-cyano-3-fluorophenyl)-6-(4-methoxyphenyl)-2-oxohydropyrazinyl]propanamide]
11 | < 100 nM | < 100 nM | CNC1CCN(c2cc(-c3ccc(C#N)cc3)c(-c3ccc(OC)cc3)n(C)c2=O)CC1 [Example 78, 4-{2-(4-methoxyphenyl)-1-methyl-5-[4-(methylamino)piperidyl]-6-oxo-3-hydropyridyl}benzenecarbonitrile]
12 |  | < 100 nM | CCn1c(-c2ccc(OC)cc2)c(-c2ccc(C#N)c(F)c2)cc(N2CCC(N)CC2)c1=O [Example 87, 4-[5-(4-aminopiperidin-1-yl)-1-ethyl-2-(4-methoxyphenyl)-6-oxopyridin-3-yl]-2-fluorobenzonitrile]
